Measurements taken from ChEMBL document CHEMBL4325903, “N-Substituted aminoquinoline-pyrimidine hybrids: Synthesis, in vitro antimalarial activity evaluation and docking studies” (Eur J Med Chem, 2019).
pIC50: −log10 of the molar value.

Tests used:
Plasmodium falciparum [1] = assay: Antimalarial activity against chloroquine-sensitive Plasmodium falciparum D6 infected in RBC after 72 hrs by LDH release assay; assay type: functional, organism-based; details: D6, 72 h
[2] = Selectivity index, ratio of IC50 for cytotoxicity against African green monkey Vero cells to IC50 for chloroquine-sensitive Plasmodium falciparum D6; assay type: toxicity, cell-based; details: read-out: Ratio IC50
Vero [3] = assay: Cytotoxicity against African green monkey Vero cells up to 10 uM after 48 hrs by neutral red assay; assay type: cell-based; details: chlorocebus sabaeus
Plasmodium falciparum [4] = assay: Antimalarial activity against chloroquine-resistant Plasmodium falciparum W2 infected in RBC after 72 hrs by LDH release assay; assay type: functional, organism-based; details: W2, 72 h
[5] = Selectivity index, ratio of IC50 for cytotoxicity against African green monkey Vero cells to IC50 for chloroquine-resistant Plasmodium falciparum W2; assay type: toxicity, cell-based; details: read-out: Ratio IC50
Vero [6] = assay: Cytotoxicity against African green monkey Vero cells after 48 hrs by neutral red assay; assay type: cell-based; details: chlorocebus sabaeus

Compound | pIC50 (Plasmodium falciparum [1]) | selectivity ratio [2] | Activity (Vero [3]) | pIC50 (Plasmodium falciparum [4]) | selectivity ratio [5] | pIC50 (Vero [6])
CCN1CCN(c2nc(C)cc(N(CCCNc3ccnc4cc(Cl)ccc34)Cc3cccs3)n2)CC1 | 7.45 | > 24.8 | Non-Toxic | 7.51 | > 28.4 | 
CCN(CC)CCCC(C)Nc1ccnc2cc(Cl)ccc12 (stereo not given) [CHLOROQUINE] |  |  | Non-Toxic |  |  | 
Cc1cc(Cl)nc(N(CCCNc2ccnc3cc(Cl)ccc23)Cc2cccs2)n1 | 6.92 | > 87.2 | Non-Toxic | 6.34 | > 22.5 | 
Cc1cc(N2CCN(C)CC2)nc(N(CCCNc2ccnc3cc(Cl)ccc23)Cc2cccs2)n1 | 7.41 | > 23.4 | Non-Toxic | 7.70 | > 45.8 | 
Cc1cc(Cl)nc(N(CCCNc2ccnc3cc(Cl)ccc23)Cc2ccccn2)n1 | 5.78 | > 6.3 | Non-Toxic | 6.09 | > 13 | 
Cc1cc(Cl)nc(N(CCNc2ccnc3cc(Cl)ccc23)Cc2ccccn2)n1 | 6.43 | 23.2 |  | 6.00 | 8.5 | 
Cc1cc(N2CCCC2)nc(N(CCCNc2ccnc3cc(Cl)ccc23)Cc2cccs2)n1 | 7.44 | > 26.8 | Non-Toxic | 7.40 | > 24 | 
Cc1cc(N(CCCNc2ccnc3cc(Cl)ccc23)Cc2ccccn2)nc(N2CCCCC2)n1 | 7.03 | > 102 | Non-Toxic | 6.09 | > 11.6 | 
Cc1cc(N2CCCC2)nc(N(CCCNc2ccnc3cc(Cl)ccc23)Cc2ccccn2)n1 | 5.98 | > 9.4 | Non-Toxic | 6.41 | > 25.1 | 
Cc1cc(N(CCCNc2ccnc3cc(Cl)ccc23)Cc2cccs2)nc(N2CCCC2)n1 | 7.38 | > 229 | Non-Toxic | 6.69 | > 47.7 | 
CCN1CCN(c2nc(C)cc(N(CCCNc3ccnc4cc(Cl)ccc34)Cc3ccccn3)n2)CC1 | 7.55 | > 321 | Non-Toxic | 6.86 | > 66 | 
C[C@@H]1CC[C@H]2[C@@H](C)C(=O)O[C@@H]3O[C@@]4(C)CC[C@@H]1[C@]32OO4 [ARTEMISININ] | 7.77 | > 49.2 | Non-Toxic | 7.79 | > 52 | 
CCN1CCN(c2nc(C)cc(N(CCNc3ccnc4cc(Cl)ccc34)Cc3ccccn3)n2)CC1 | 7.55 | > 326 | Non-Toxic | 7.03 | > 98 | 
Cc1cc(N2CCCCC2)nc(N(CCCNc2ccnc3cc(Cl)ccc23)Cc2ccccn2)n1 | 5.92 | > 7.9 | Non-Toxic | 6.02 | > 10 | 
Cc1cc(N2CCCCC2)nc(N(CCNc2ccnc3cc(Cl)ccc23)Cc2ccccn2)n1 | 6.60 | > 38.6 | Non-Toxic | 5.84 | > 6.8 | 
Cc1cc(N(CCCNc2ccnc3cc(Cl)ccc23)Cc2cccs2)nc(Cl)n1 | 6.61 | > 42.2 | Non-Toxic | 6.22 | > 17.1 | 
Cc1cc(N(CCNc2ccnc3cc(Cl)ccc23)Cc2ccccn2)nc(Cl)n1 | 6.63 | > 46.6 | Non-Toxic | 6.31 | > 22 | 
Cc1cc(N2CCOCC2)nc(N(CCCNc2ccnc3cc(Cl)ccc23)Cc2cccs2)n1 | 7.25 | > 167 | Non-Toxic | 6.27 | > 17.2 | 
Cc1cc(N(CCCNc2ccnc3cc(Cl)ccc23)Cc2cccs2)nc(N2CCOCC2)n1 | 7.26 | 168 |  | 6.39 | 22.7 | 5.03
